Assay results as given in US8063042B2, “Heterocyclic compounds” (Hoffmann-La Roche Inc., priority 2007, dated 2011).

biological target: T1, human chemokine receptor 2 isoform B (Homo sapiens, UniProt P41597); assay: Calcium mobilization assay; format: cell-based; details: Ca mobilisation assay for CCR2; CHOK1-CCR2B-A5 cells; antagonist activity against 20 nM MCP-1
T1 construct: host or cells: CHOK1-CCR2B-A5 (CHO-K1) cells
T1 sequence (P41597 1-360 isoform P41597-2): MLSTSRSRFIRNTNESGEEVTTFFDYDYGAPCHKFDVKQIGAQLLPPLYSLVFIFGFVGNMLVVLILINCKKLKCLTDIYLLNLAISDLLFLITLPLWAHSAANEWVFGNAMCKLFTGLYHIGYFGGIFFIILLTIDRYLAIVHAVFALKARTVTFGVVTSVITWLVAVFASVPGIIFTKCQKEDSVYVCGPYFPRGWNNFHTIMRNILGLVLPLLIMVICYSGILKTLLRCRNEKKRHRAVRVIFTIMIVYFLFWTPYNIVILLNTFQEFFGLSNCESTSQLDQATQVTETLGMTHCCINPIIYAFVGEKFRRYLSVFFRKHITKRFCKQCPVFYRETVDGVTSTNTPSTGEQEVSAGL
Description: Calcium Mobilization Assay
CHOK1-CCR2B-A5 cells (from Euroscreen) stably overexpressing the human chemokine receptor 2 isoform B were cultured in Nutrient Hams F12 medium supplemented with 5% FBS, 100 U/ml penicillin, 100 μg/ml streptomycin, 400 μg/ml G418 and 5 μg/ml puromycin. For the assay cells were grown overnight in 384-well black clear flat bottom polystyrene plates (Costar) at 37° C. at 5% CO2. After washing with DMEM, 20 mM Hepes, 2.5 mM probenecid, 0.1% BSA (DMEM assay buffer) cells were loaded with 4 μM Fluo-4 in the same DMEM assay buffer for 2 hours at 30° C. Excess dye was removed and cells were washed with DMEM assay buffer. 384-well compound plates were prepared with DMEM assay buffer/0.5% DMSO with or without various concentrations of test compounds. Usually compounds were tested for agonist and antagonist activity.
Test compounds were added to the assay plate and agonist activity was monitored as fluorescence for 80 seconds with a FLIPR (488 nm excitation; 510-570 nm emission; Molecular Devices). After 20-30 min. of incubation at 30° C., 20 nM MCP-1 (R&D; Roche) was added and fluorescence was monitored again for 80 seconds. Increases in intracellular calcium are reported as maximum fluorescence after agonist exposure minus basal fluorescence before exposure. Antagonist activity is indicated as inhibitor concentration required for 50% inhibition of specific calcium increases.

| Structure (SMILES) | IC50 [nM] |
| --- | --- |
| CC1C(=O)N(CCCN2CCC3(CC3)[C@H](O)C2)CCN1C(=O)/C=C/c1ccc(Cl)c(F)c1 (stereo partly drawn) [Example 39, 4-[(E)-3-(4-Chloro-3-fluoro-phenyl)-acryloyl]-1-[3-((S)-4-hydroxy-6-aza-spiro[2,5]oct-6-yl)-propyl]-3-methyl-piperazin-2-one] | 13.7 |
| O=C(/C=C/c1ccc(Cl)c(Cl)c1)N1CCN(CCCN2CCCCC2)S(=O)(=O)C1 [Example 34, (E)-3-(3,4-Dichloro-phenyl)-1-[1,1-dioxo-2-(3-piperidin-1-yl-propyl)-[1,2,5]thiadiazinan-5-yl]-propenone] | 202 |
| CC1C(=O)N(CCCN2CCCC2)CCN1C(=O)/C=C/c1ccc(Cl)c(Cl)c1 (centres unmarked) [Example 15, 4-[(E)-3-(3,4-Dichloro-phenyl)-acryloyl]-3-methyl-1-(3-pyrrolidin-1-yl-propyl)-piperazin-2-one] | 76.5 |

Further lines, results first:

| IC50 [nM] | Structure (SMILES) |
| --- | --- |
| 284 | O=C(/C=C/c1ccc(Cl)c(Cl)c1)N1CCN(CCCN2CCC(O)CC2)C(=O)C1 [Example 11, 4-[(E)-3-(3,4-Dichloro-phenyl)-acryloyl]-1-[3-(4-hydroxy-piperidin-1-yl)-propyl]-piperazin-2-one] |
| 307 | O=C(/C=C/c1ccc(Cl)c(Cl)c1)N1CCN(CCCN2CCC(CO)C2)C(=O)C1 (centres unmarked) [Example 14, 4-[(E)-3-(3,4-Dichloro-phenyl)-acryloyl]-1-[3-(3-hydroxymethyl-pyrrolidin-1-yl)-propyl]-piperazin-2-one] |
